In US20220289698A1, “INHIBITORS OF HUMAN ATGL” (Karl-Franzens-Universität Graz, priority 2019, published 2022):
Read-outs that look alike come from different tables or passages of the source.

Columns and labels:
human ATGL = biological target: T1, human ATGL (Homo sapiens, UniProt Q96AD5); assay: TG hydrolase activity, Expi cell lysates expressing human ATGL + CGI-58, radiolabelled triolein; type: biochemical
T1 construct: made in house; host or cells: Expi cells (lysate, not purified)
T1 sequence (Q96AD5 1-504): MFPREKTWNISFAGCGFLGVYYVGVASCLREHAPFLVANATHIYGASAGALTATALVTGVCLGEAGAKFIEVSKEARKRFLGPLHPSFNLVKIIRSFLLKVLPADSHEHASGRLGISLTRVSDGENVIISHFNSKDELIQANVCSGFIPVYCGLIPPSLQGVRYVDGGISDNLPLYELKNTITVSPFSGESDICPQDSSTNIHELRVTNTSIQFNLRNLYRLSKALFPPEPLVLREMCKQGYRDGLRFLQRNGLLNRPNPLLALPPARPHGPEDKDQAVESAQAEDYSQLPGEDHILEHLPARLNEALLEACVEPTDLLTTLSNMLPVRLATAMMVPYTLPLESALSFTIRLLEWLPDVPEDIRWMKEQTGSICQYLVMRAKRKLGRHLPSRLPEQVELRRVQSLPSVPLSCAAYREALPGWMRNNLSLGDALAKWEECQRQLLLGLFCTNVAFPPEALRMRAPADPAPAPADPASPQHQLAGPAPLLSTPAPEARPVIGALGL
Outline: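 Lysates of Expi cells expressing ATGL, supplemented with purified CGI-58 and inhibitor in DMSO, incubated 1 h at 37 °C with emulsified radiolabelled triolein (330 μM) in potassium phosphate pH 7.0 with 5% FA-free BSA. Released FA counted by liquid scintillation after phase extraction; IC50 versus DMSO control, duplicates.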

rat ATGL = biological target: T2, rat ATGL (Rattus norvegicus, UniProt P0C548); assay: Rat ATGL inhibition, Expi lysates + CGI-58; type: biochemical
T2 construct: made in house; host or cells: Expi cells (lysate)
T2 sequence (P0C548 1-478): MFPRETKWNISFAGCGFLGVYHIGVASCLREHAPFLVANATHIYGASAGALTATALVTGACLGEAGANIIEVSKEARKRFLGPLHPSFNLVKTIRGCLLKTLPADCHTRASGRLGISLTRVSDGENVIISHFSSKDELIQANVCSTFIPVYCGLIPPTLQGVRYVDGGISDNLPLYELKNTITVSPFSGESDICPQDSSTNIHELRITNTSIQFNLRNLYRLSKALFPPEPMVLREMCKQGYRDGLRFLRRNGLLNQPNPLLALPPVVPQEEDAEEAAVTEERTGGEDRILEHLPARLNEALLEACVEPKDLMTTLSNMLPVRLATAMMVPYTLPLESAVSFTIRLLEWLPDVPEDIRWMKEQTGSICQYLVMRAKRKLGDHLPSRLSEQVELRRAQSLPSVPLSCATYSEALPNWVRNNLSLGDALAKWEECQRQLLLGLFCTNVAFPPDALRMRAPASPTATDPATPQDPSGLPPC
Experimental: (§1) Lysates from Expi cells overexpressing ATGL from rat (Rattus norvegicus) were incubated with recombinant purified ATGL co-activator CGI-58 and ATGL inhibitors at 50 μM. Subsequently, substrate containing radiolabeled triolein was added and liberated FA were extracted and quantified by liquid scintillation. Inhibitors were dissolved in DMSO which was used as control. Samples were measured in triplicates.

rhesus monkey ATGL = assay: Rhesus monkey ATGL inhibition, Expi lysates + CGI-58; type: biochemical
Experimental: as §1, with “rhesus monkeys (Macaca mulatta)” for “rat (Rattus norvegicus)”

pig vWAT = assay: Pig vWAT inhibition, visceral adipose tissue lysates + CGI-58; type: biochemical
Experimental: as §1, with “visceral adipose tissue of pigs (Sus scrofa)” for “Expi cells overexpressing ATGL from rat (Rattus norvegicus)”

Stability in human serum = type: in vitro ADME; details: 37° C., HPLC MS
Experimental: Inhibitors were incubated in human serum for 0 or 3 h at 37° C. and subsequently extracted with the MTBE method and analyzed via HPLC MS. Samples measured in triplicates.

mMGL = biological target: T3, mMGL (Mus musculus, UniProt O35678); assay: mMGL off-target inhibition; type: biochemical; details: read-out: mMGL off-target inhibition [% inhibition at 100 μM]
T3 construct: made in house; host or cells: E. coli (lysate)
T3 sequence (O35678 1-303): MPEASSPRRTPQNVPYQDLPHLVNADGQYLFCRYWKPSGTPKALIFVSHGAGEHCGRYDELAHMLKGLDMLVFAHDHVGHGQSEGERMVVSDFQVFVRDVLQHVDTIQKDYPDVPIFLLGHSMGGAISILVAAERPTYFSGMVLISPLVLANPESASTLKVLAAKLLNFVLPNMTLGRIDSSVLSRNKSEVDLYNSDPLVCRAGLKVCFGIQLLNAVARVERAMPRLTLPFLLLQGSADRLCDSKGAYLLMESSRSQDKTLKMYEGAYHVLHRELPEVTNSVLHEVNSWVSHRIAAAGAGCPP
Experimental: Lysates from E. coli expressing mMGL were treated with 100 μM Inhibitors and incubated with 1 mM rac-OG substrate for 10 min. Enzyme activity was measured using the Free Glycerol Reagent. Samples measured in triplicates.

[1] = Example 237, read-out: Inhibition of human ATGL − IC50
[2] = Example 238, read-out: Inhibition of human ATGL IC50

SMILES: CCOc1ccc(-c2nc(C(=O)OCc3cccs3)cs2)cc1 [Example 152, Thiophen-2-ylmethyl 2-(4-ethoxyphenyl)thiazole-4-carboxylate]
- IC50 (human ATGL; [1]): 10 µM
- inhibition at 50 µM (rat ATGL): 10%
- rhesus monkey ATGL inhibition [% inhibition at 50 μM] (rhesus monkey ATGL): 10%
- pig vWAT inhibition [% inhibition at 50 μM (pig vWAT): 0%
- Stability in human serum [% rest after 3 h incubation] (Stability in human serum): 80%

SMILES: CC#CCOC(=O)c1csc(-c2ccc(OCC)cc2)n1 [Example 209, But-2-yn-1-yl 2-(4-ethoxyphenyl)thiazole-4-carboxylate]
- IC50 (human ATGL; [2]): 10 µM
- inhibition at 50 µM (rat ATGL): 40%
- rhesus monkey ATGL inhibition [% inhibition at 50 μM] (rhesus monkey ATGL): 70%
- pig vWAT inhibition [% inhibition at 50 μM (pig vWAT): 0%
- inhibition at 100 µM (mMGL): 0%
- Stability in human serum [% rest after 3 h incubation] (Stability in human serum): 75%

SMILES: CCOc1ccc(-c2cccc(C(=O)OCc3ccco3)n2)cc1 [Example 190, Furan-2-ylmethyl 6-(4-ethoxyphenyl)picolinate]
- IC50 (human ATGL; [2]): 15 µM
- inhibition at 50 µM (rat ATGL): 40%
- rhesus monkey ATGL inhibition [% inhibition at 50 μM] (rhesus monkey ATGL): 70%
- pig vWAT inhibition [% inhibition at 50 μM (pig vWAT): 0%
- inhibition at 100 µM (mMGL): 0%
- Stability in human serum [% rest after 3 h incubation] (Stability in human serum): 0%

SMILES: CCOc1ccc(-c2cc(OC)cc(C(=O)OC(C)C)n2)cc1 [Example 35]
- IC50 (human ATGL; [1]): 1 µM
- inhibition at 100 µM (mMGL): 0%
- Stability in human serum [% rest after 3 h incubation] (Stability in human serum): 75%

SMILES: C#C[C@H](C)OC(=O)c1csc(-c2ccc(OCC)cc2)n1 [Example 210, (S)-But-3-yn-2-yl 2-(4-ethoxyphenyl)thiazole-4-carboxylate]
- IC50 (human ATGL; [2]): < 3 µM
- inhibition at 50 µM (rat ATGL): 15%
- rhesus monkey ATGL inhibition [% inhibition at 50 μM] (rhesus monkey ATGL): 90%
- pig vWAT inhibition [% inhibition at 50 μM (pig vWAT): 5%
- inhibition at 100 µM (mMGL): 0%
- Stability in human serum [% rest after 3 h incubation] (Stability in human serum): 100%

SMILES: CCOc1ccc(-c2nc(C(=O)OCc3ccc(Cl)s3)cs2)cc1 [Example 223, (5-Chlorothiophen-2-yl)methyl 2-(4-ethoxyphenyl)thiazole-4-carboxylate]
- IC50 (human ATGL; [2]): 12 µM
- inhibition at 50 µM (rat ATGL): 40%
- rhesus monkey ATGL inhibition [% inhibition at 50 μM] (rhesus monkey ATGL): 65%
- pig vWAT inhibition [% inhibition at 50 μM (pig vWAT): 15%
- inhibition at 100 µM (mMGL): 0%
- Stability in human serum [% rest after 3 h incubation] (Stability in human serum): 80%

SMILES: CCOc1ccc(-c2cccc(C(=O)OCc3cccs3)n2)cc1 [Example 189, Thiophen-2-ylmethyl 6-(4-ethoxyphenyl)picolinate]
- IC50 (human ATGL; [2]): 25 µM
- inhibition at 50 µM (rat ATGL): 10%
- rhesus monkey ATGL inhibition [% inhibition at 50 μM] (rhesus monkey ATGL): 70%
- pig vWAT inhibition [% inhibition at 50 μM (pig vWAT): 15%
- inhibition at 100 µM (mMGL): 0%
- Stability in human serum [% rest after 3 h incubation] (Stability in human serum): 25%

SMILES: CCOc1ccc(-c2nc(C(=O)OCc3ccoc3)cs2)cc1 [Example 216, Furan-3-ylmethyl 2-(4-ethoxyphenyl)thiazole-4-carboxylate]
- IC50 (human ATGL; [2]): < 3 µM
- inhibition at 50 µM (rat ATGL): 50%
- rhesus monkey ATGL inhibition [% inhibition at 50 μM] (rhesus monkey ATGL): 70%
- pig vWAT inhibition [% inhibition at 50 μM (pig vWAT): 15%
- inhibition at 100 µM (mMGL): 0%
- Stability in human serum [% rest after 3 h incubation] (Stability in human serum): 60%

SMILES: COc1cc(C(=O)OC(C)C)nc(-c2ccc(OC(C)C)cc2)c1 [Example 201, Isopropyl 6-(4-isopropoxyphenyl)-4-methoxypicolinate]
- IC50 (human ATGL; [2]): < 3 µM
- inhibition at 50 µM (rat ATGL): 0%
- rhesus monkey ATGL inhibition [% inhibition at 50 μM] (rhesus monkey ATGL): 95%
- pig vWAT inhibition [% inhibition at 50 μM (pig vWAT): 0%
- inhibition at 100 µM (mMGL): 0%
- Stability in human serum [% rest after 3 h incubation] (Stability in human serum): 100%

SMILES: C#C[C@@H](C)OC(=O)c1csc(-c2ccc(OCC)cc2)n1 [Example 211, (R)-But-3-yn-2-yl 2-(4-ethoxyphenyl)thiazole-4-carboxylate]
- IC50 (human ATGL; [2]): < 3 µM
- inhibition at 50 µM (rat ATGL): 50%
- rhesus monkey ATGL inhibition [% inhibition at 50 μM] (rhesus monkey ATGL): 100%
- pig vWAT inhibition [% inhibition at 50 μM (pig vWAT): 5%
- inhibition at 100 µM (mMGL): 0%
- Stability in human serum [% rest after 3 h incubation] (Stability in human serum): 90%

SMILES: CCCCOC(=O)c1csc(-c2ccc(OCC)cc2)n1 [Example 212, Butyl 2-(4-ethoxyphenyl)thiazole-4-carboxylate]
- IC50 (human ATGL; [2]): 7 µM
- inhibition at 50 µM (rat ATGL): 40%
- rhesus monkey ATGL inhibition [% inhibition at 50 μM] (rhesus monkey ATGL): 70%
- pig vWAT inhibition [% inhibition at 50 μM (pig vWAT): 5%
- inhibition at 100 µM (mMGL): 0%
- Stability in human serum [% rest after 3 h incubation] (Stability in human serum): 50%

SMILES: CCOc1ccc(-c2nc(C(=O)OCc3ccc(Br)s3)cs2)cc1 [Example 224, (5-Bromothiophen-2-yl)methyl 2-(4-ethoxyphenyl)thiazole-4-carboxylate]
- IC50 (human ATGL; [2]): 12 µM
- inhibition at 50 µM (rat ATGL): 40%
- rhesus monkey ATGL inhibition [% inhibition at 50 μM] (rhesus monkey ATGL): 70%
- pig vWAT inhibition [% inhibition at 50 μM (pig vWAT): 15%
- inhibition at 100 µM (mMGL): 70%

SMILES: CCOc1ccc(-c2nc(C(=O)OCc3ccsc3)cs2)cc1 [Example 215, Thiophen-3-ylmethyl 2-(4-ethoxyphenyl)thiazole-4-carboxylate]
- IC50 (human ATGL; [2]): < 3 µM
- inhibition at 50 µM (rat ATGL): 50%
- rhesus monkey ATGL inhibition [% inhibition at 50 μM] (rhesus monkey ATGL): 70%
- pig vWAT inhibition [% inhibition at 50 μM (pig vWAT): 15%
- inhibition at 100 µM (mMGL): 0%
- Stability in human serum [% rest after 3 h incubation] (Stability in human serum): 80%
